Starred links: 1 amine or outer side, 2 acyl side, 3 side chain; linkers in the order of their positions; H or OH if unused. Positions of bridges follow the written chain, without caps; N, C: chain ends. Residues, ends and D or L forms follow the SMILES beside them. *: point of attachment. C20 diacid = O=C(O)CCCCCCCCCCCCCCCCCCC(=O)*; C18 diacid = O=C(O)CCCCCCCCCCCCCCCCC(=O)*; γGlu = O=C(O)[C@H](CCC(=O)[*:2])N[*:1]
Experiment: Assay (I) efficacy testing on appetite (food intake), ad libitum fed rat model
Format: in vivo, Sprague Dawley (SD) rats
Settings: 3 nmol/kg
Procedure, shortened: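 Ad libitum fed SD rats (200-250 g) on a reversed light cycle, housed individually, received a single 0.01-3 mg/kg dose ip, po or sc just before lights-off. Individual food intake recorded hourly for 7 h, then at 24 h and sometimes 48 h, versus vehicle; Grubbs outliers excluded.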

Compound	Food intake reduction 0-24 h 3 nmol/kg (%)	Food intake reduction 24-48 h 3 nmol/kg (%)
CC[C@H](C)[C@H](NC(=O)[C@@H]1CCCN1C(=O)CNC(=O)[C@H](Cc1ccccc1)NC(=O)[C@H](CC(N)=O)NC(=O)[C@H](CC(N)=O)NC(=O)[C@H](CO)NC(=O)[C@H](CO)NC(=O)[C@H](Cc1c[nH]cn1)NC(=O)[C@H](Cc1c[nH]cn1)NC(=O)[C@H](CC(C)C)NC(=O)[C@H](Cc1ccccc1)NC(=O)[C@H](CCC(=O)O)NC(=O)[C@H](C)NC(=O)[C@H](CC(C)C)NC(=O)[C@H](CCCNC(=N)N)NC(=O)[C@H](CCC(N)=O)NC(=O)[C@@H](NC(=O)[C@H](C)NC(=O)[C@@H]1CSSC[C@H](NC(=O)[C@H](CCCCN)NC(=O)[C@H](CCC(=O)O)NC(=O)CC[C@H](NC(=O)CCCCCCCCCCCCCCCCCCC(=O)O)C(=O)O)C(=O)N[C@@H](CC(N)=O)C(=O)N[C@@H]([C@@H](C)O)C(=O)N[C@@H](C)C(=O)N[C@@H]([C@@H](C)O)C(=O)N1)[C@@H](C)O)C(=O)N[C@@H](CC(C)C)C(=O)N1CCC[C@H]1C(=O)N1CCC[C@H]1C(=O)N[C@H](C(=O)N[C@@H](CC(N)=O)C(=O)N[C@H](C(=O)NCC(=O)N[C@@H](CO)C(=O)N[C@@H](CC(N)=O)C(=O)N[C@H](C(=O)N[C@@H](Cc1ccc(O)cc1)C(N)=O)[C@@H](C)O)C(C)C)[C@@H](C)O [compound 26] ({C20 diacid-γGlu}-EKCNTATCATQRLAEFLHHSSNNFGPILPPTNVGSNTY-NH2; disulfide 3-8)	46%	39%
CC[C@H](C)[C@H](NC(=O)[C@@H]1CCCN1C(=O)CNC(=O)[C@H](Cc1ccccc1)NC(=O)[C@H](CC(N)=O)NC(=O)[C@H](CC(N)=O)NC(=O)[C@H](CO)NC(=O)[C@H](CO)NC(=O)[C@H](Cc1c[nH]cn1)NC(=O)[C@H](Cc1c[nH]cn1)NC(=O)[C@H](CC(C)C)NC(=O)[C@H](Cc1ccccc1)NC(=O)[C@H](CCC(=O)O)NC(=O)[C@H](C)NC(=O)[C@H](CC(C)C)NC(=O)[C@H](CCCNC(=N)N)NC(=O)[C@H](CCC(N)=O)NC(=O)[C@@H](NC(=O)[C@H](C)NC(=O)[C@@H]1CSSC[C@H](NC(=O)CC[C@H](NC(=O)CCCCCCCCCCCCCCCCCCC(=O)O)C(=O)O)C(=O)N[C@@H](CC(N)=O)C(=O)N[C@@H]([C@@H](C)O)C(=O)N[C@@H](C)C(=O)N[C@@H]([C@@H](C)O)C(=O)N1)[C@@H](C)O)C(=O)N[C@@H](CC(C)C)C(=O)N1CCC[C@H]1C(=O)N1CCC[C@H]1C(=O)N[C@H](C(=O)N[C@@H](CC(N)=O)C(=O)N[C@H](C(=O)NCC(=O)N[C@@H](CO)C(=O)N[C@@H](CC(N)=O)C(=O)N[C@H](C(=O)N[C@@H](Cc1ccc(O)cc1)C(N)=O)[C@@H](C)O)C(C)C)[C@@H](C)O [compound 28] ({C20 diacid-γGlu}-CNTATCATQRLAEFLHHSSNNFGPILPPTNVGSNTY-NH2; disulfide 1-6 (inferred); C-terminus assumed)	39%	36%
CC[C@H](C)[C@H](NC(=O)[C@@H]1CCCN1C(=O)CNC(=O)[C@H](Cc1ccccc1)NC(=O)[C@H](CC(N)=O)NC(=O)[C@H](CC(N)=O)NC(=O)[C@H](CO)NC(=O)[C@H](CO)NC(=O)[C@H](Cc1c[nH]cn1)NC(=O)[C@H](Cc1c[nH]cn1)NC(=O)[C@H](CC(C)C)NC(=O)[C@H](Cc1ccccc1)NC(=O)[C@H](CCC(=O)O)NC(=O)[C@H](C)NC(=O)[C@H](CC(C)C)NC(=O)[C@H](CCCNC(=N)N)NC(=O)[C@H](CCC(N)=O)NC(=O)[C@@H](NC(=O)[C@H](C)NC(=O)[C@@H]1CSSC[C@H](NC(=O)[C@H](CCC(=O)O)NC(=O)CC[C@H](NC(=O)CCCCCCCCCCCCCCCCCCC(=O)O)C(=O)O)C(=O)N[C@@H](CC(N)=O)C(=O)N[C@@H]([C@@H](C)O)C(=O)N[C@@H](C)C(=O)N[C@@H]([C@@H](C)O)C(=O)N1)[C@@H](C)O)C(=O)N[C@@H](CC(C)C)C(=O)N1CCC[C@H]1C(=O)N1CCC[C@H]1C(=O)N[C@H](C(=O)N[C@@H](CC(N)=O)C(=O)N[C@H](C(=O)NCC(=O)N[C@@H](CO)C(=O)N[C@@H](CC(N)=O)C(=O)N[C@H](C(=O)N[C@@H](Cc1ccc(O)cc1)C(N)=O)[C@@H](C)O)C(C)C)[C@@H](C)O [compound 29] ({C20 diacid-γGlu}-ECNTATCATQRLAEFLHHSSNNFGPILPPTNVGSNTY-NH2; disulfide 2-7)	15%	5%
CC[C@H](C)[C@H](NC(=O)[C@@H]1CCCN1C(=O)CNC(=O)[C@H](Cc1ccccc1)NC(=O)[C@H](CC(N)=O)NC(=O)[C@H](CC(N)=O)NC(=O)[C@H](CO)NC(=O)[C@H](CO)NC(=O)[C@H](Cc1c[nH]cn1)NC(=O)[C@H](Cc1c[nH]cn1)NC(=O)[C@H](CC(C)C)NC(=O)[C@H](Cc1ccccc1)NC(=O)[C@H](CCC(=O)O)NC(=O)[C@H](C)NC(=O)[C@H](CC(C)C)NC(=O)[C@H](CCCNC(=N)N)NC(=O)[C@H](CCC(N)=O)NC(=O)[C@@H](NC(=O)[C@H](C)NC(=O)[C@@H]1CSSC[C@H](NC(=O)[C@H](CCCCN)NC(=O)CC[C@H](NC(=O)CCCCCCCCCCCCCCCCC(=O)O)C(=O)O)C(=O)N[C@@H](CC(N)=O)C(=O)N[C@@H]([C@@H](C)O)C(=O)N[C@@H](C)C(=O)N[C@@H]([C@@H](C)O)C(=O)N1)[C@@H](C)O)C(=O)N[C@@H](CC(C)C)C(=O)N1CCC[C@H]1C(=O)N1CCC[C@H]1C(=O)N[C@H](C(=O)N[C@@H](CC(N)=O)C(=O)N[C@H](C(=O)NCC(=O)N[C@@H](CO)C(=O)N[C@@H](CC(N)=O)C(=O)N[C@H](C(=O)N[C@@H](Cc1ccc(O)cc1)C(N)=O)[C@@H](C)O)C(C)C)[C@@H](C)O [compound 46] ({C18 diacid-γGlu}-KCNTATCATQRLAEFLHHSSNNFGPILPPTNVGSNTY-NH2; disulfide 2-7 (inferred); C-terminus assumed)	54%	27%
CC[C@H](C)[C@H](NC(=O)[C@@H]1CCCN1C(=O)CNC(=O)[C@H](Cc1ccccc1)NC(=O)[C@H](CC(N)=O)NC(=O)[C@H](CC(N)=O)NC(=O)[C@H](CO)NC(=O)[C@H](CO)NC(=O)[C@H](Cc1c[nH]cn1)NC(=O)[C@H](CCCNC(=N)N)NC(=O)[C@H](CC(C)C)NC(=O)[C@H](Cc1ccccc1)NC(=O)[C@H](CCC(=O)O)NC(=O)[C@H](C)NC(=O)[C@H](CC(C)C)NC(=O)[C@H](CCCNC(=N)N)NC(=O)[C@H](CCC(N)=O)NC(=O)[C@@H](NC(=O)[C@H](C)NC(=O)[C@@H]1CSSC[C@H](NC(=O)[C@H](CCCCN)NC(=O)CC[C@H](NC(=O)CCCCCCCCCCCCCCCCCCC(=O)O)C(=O)O)C(=O)N[C@@H](CC(N)=O)C(=O)N[C@@H]([C@@H](C)O)C(=O)N[C@@H](C)C(=O)N[C@@H]([C@@H](C)O)C(=O)N1)[C@@H](C)O)C(=O)N[C@@H](CC(C)C)C(=O)N1CCC[C@H]1C(=O)N1CCC[C@H]1C(=O)N[C@H](C(=O)N[C@@H](CC(N)=O)C(=O)N[C@H](C(=O)NCC(=O)N[C@@H](CO)C(=O)N[C@@H](CC(N)=O)C(=O)N[C@H](C(=O)N[C@@H](Cc1ccc(O)cc1)C(N)=O)[C@@H](C)O)C(C)C)[C@@H](C)O [compound 50] ({C20 diacid-γGlu}-KCNTATCATQRLAEFLRHSSNNFGPILPPTNVGSNTY-NH2; disulfide 2-7 (inferred); C-terminus assumed)	30%	8%
CC[C@H](C)[C@H](NC(=O)[C@@H]1CCCN1C(=O)CNC(=O)[C@H](Cc1ccccc1)NC(=O)[C@H](CC(N)=O)NC(=O)[C@H](CC(N)=O)NC(=O)[C@H](CO)NC(=O)[C@H](CO)NC(=O)[C@H](Cc1c[nH]cn1)NC(=O)[C@H](Cc1c[nH]cn1)NC(=O)[C@H](CC(C)C)NC(=O)[C@H](Cc1ccccc1)NC(=O)[C@H](CCC(=O)O)NC(=O)[C@H](C)NC(=O)[C@H](CC(C)C)NC(=O)[C@H](CCCNC(=N)N)NC(=O)[C@H](CCC(N)=O)NC(=O)[C@@H](NC(=O)[C@H](C)NC(=O)[C@@H]1CSSC[C@H](NC(=O)[C@H](CCCCN)NC(=O)[C@H](CCC(=O)O)NC(=O)CC[C@H](NC(=O)CCCCCCCCCCCCCCCCCCC(=O)O)C(=O)O)C(=O)N[C@@H](CC(N)=O)C(=O)N[C@@H]([C@@H](C)O)C(=O)N[C@@H](C)C(=O)N[C@@H]([C@@H](C)O)C(=O)N1)[C@@H](C)O)C(=O)N[C@@H](CC(C)C)C(=O)N1CCC[C@H]1C(=O)N1CCC[C@H]1C(=O)N[C@H](C(=O)N[C@@H](CC(N)=O)C(=O)N[C@H](C(=O)NCC(=O)N[C@@H](CO)C(=O)N[C@@H](Cc1c[nH]cn1)C(=O)N[C@H](C(=O)N[C@@H](Cc1ccc(O)cc1)C(N)=O)[C@@H](C)O)C(C)C)[C@@H](C)O [compound 56] ({C20 diacid-γGlu}-EKCNTATCATQRLAEFLHHSSNNFGPILPPTNVGSHTY-NH2; disulfide 3-8)	46%	21%
CC[C@H](C)[C@H](NC(=O)[C@@H]1CCCN1C(=O)CNC(=O)[C@H](Cc1ccccc1)NC(=O)[C@H](CC(N)=O)NC(=O)[C@H](CC(N)=O)NC(=O)[C@H](CO)NC(=O)[C@H](CO)NC(=O)[C@H](Cc1c[nH]cn1)NC(=O)[C@H](CCCNC(=N)N)NC(=O)[C@H](CC(C)C)NC(=O)[C@H](Cc1ccccc1)NC(=O)[C@H](CCC(=O)O)NC(=O)[C@H](C)NC(=O)[C@H](CC(C)C)NC(=O)[C@H](CCCNC(=N)N)NC(=O)[C@H](CCC(N)=O)NC(=O)[C@@H](NC(=O)[C@H](C)NC(=O)[C@@H]1CSSC[C@H](NC(=O)[C@H](CCCCN)NC(=O)[C@H](Cc2c[nH]cn2)NC(=O)CC[C@H](NC(=O)CCCCCCCCCCCCCCCCC(=O)O)C(=O)O)C(=O)N[C@@H](CC(N)=O)C(=O)N[C@@H]([C@@H](C)O)C(=O)N[C@@H](C)C(=O)N[C@@H]([C@@H](C)O)C(=O)N1)[C@@H](C)O)C(=O)N[C@@H](CC(C)C)C(=O)N1CCC[C@H]1C(=O)N1CCC[C@H]1C(=O)N[C@H](C(=O)N[C@@H](CC(N)=O)C(=O)N[C@H](C(=O)NCC(=O)N[C@@H](CO)C(=O)N[C@@H](Cc1c[nH]cn1)C(=O)N[C@H](C(=O)N[C@@H](Cc1ccc(O)cc1)C(N)=O)[C@@H](C)O)C(C)C)[C@@H](C)O [compound 71] ({C18 diacid-γGlu}-HKCNTATCATQRLAEFLRHSSNNFGPILPPTNVGSHTY-NH2; disulfide 3-8 (inferred); C-terminus assumed)	10%	0%

Source: patent publication US9029325B2, “Amylin analogues and pharmaceutical compositions thereof” (Novo Nordisk A/S, priority 2011, dated 2015)
